Test results: patent US20180008587A1, “THIOHYDANTOIN ANDROGEN RECEPTOR ANTAGONISTS FOR THE TREATMENT OF CANCER” (Jaressen Pharmaceutica NV, priority 2016, published 2018)
Substitutions are numbered along the chain they refer to. pEC50: −log10 of the molar value. Like-named read-outs stand apart in the source and are kept apart here.

Columns and labels:
Type in all cases: cell-based
[1] = target: T1, wild-type Androgen Receptor (AR-wt) (Homo sapiens, UniProt P10275); test: LNCaP-AR-wt AG reporter assay (ARE firefly luciferase, agonist mode); conditions: for EC50: agonist mode, −Log10(EC50 [Molar]), read-out: LNCaP-AR-wt AG pEC50 (converted); for Emax: read-out: LNCaP-AR-wt AG MAX % Stim
T1 construct: expressed in transfected cells; host or cells: LNCaP (LNCaP AR (cs))
T1 sequence (P10275 1-920): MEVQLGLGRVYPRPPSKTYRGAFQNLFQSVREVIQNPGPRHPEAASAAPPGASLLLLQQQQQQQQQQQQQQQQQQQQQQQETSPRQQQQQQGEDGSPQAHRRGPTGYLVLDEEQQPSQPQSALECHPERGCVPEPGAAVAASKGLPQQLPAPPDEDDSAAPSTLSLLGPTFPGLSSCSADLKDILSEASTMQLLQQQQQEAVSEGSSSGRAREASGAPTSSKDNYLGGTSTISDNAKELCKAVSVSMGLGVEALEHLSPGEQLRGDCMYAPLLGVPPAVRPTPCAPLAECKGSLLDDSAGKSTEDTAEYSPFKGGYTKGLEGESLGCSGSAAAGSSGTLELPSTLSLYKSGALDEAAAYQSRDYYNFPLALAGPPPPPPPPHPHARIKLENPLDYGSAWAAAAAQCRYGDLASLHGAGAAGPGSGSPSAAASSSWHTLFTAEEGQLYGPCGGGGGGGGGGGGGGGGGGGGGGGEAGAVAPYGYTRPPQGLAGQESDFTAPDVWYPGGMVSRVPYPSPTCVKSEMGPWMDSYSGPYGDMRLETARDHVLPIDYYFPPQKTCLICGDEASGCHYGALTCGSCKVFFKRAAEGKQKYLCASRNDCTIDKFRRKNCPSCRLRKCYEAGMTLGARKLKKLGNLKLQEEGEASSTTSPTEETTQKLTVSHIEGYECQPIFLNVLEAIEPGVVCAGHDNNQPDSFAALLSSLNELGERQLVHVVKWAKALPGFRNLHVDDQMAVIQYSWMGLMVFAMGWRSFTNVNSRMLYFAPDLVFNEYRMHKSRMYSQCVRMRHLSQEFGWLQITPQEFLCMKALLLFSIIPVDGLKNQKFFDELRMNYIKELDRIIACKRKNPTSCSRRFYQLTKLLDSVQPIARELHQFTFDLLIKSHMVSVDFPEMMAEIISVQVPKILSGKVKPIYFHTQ
Experimental: (§1) A stable pooled-population cell line was generated using puromycin (Life Technologies) selection at 1:10,000 v/v. The protocol below was used for both cell lines and for testing of the compounds of Formula (I) of the present invention.
(§2) LNCaP cells were grown to about 80% confluence, media removed and cells rinsed in Hank's balanced salt solution prior to separation from the plate with 0.05% Trypsin EDTA. Cells were lifted and trypsin negated in complete CSS (charcoal stripped serum) culture media. […] Agonist challenge was at 400 pM for WT assay and 600 pM for F876L assay. Plates containing cells and compounds herein were incubated for a further 20-24 hours at 37° C., 5% CO2 before addition of 40 μL/well of Steady-Glo Luciferase Assay System Reagent (Promega# E2520). After 1 h, plates were read for luminescence on a BMG Pherastar.
(§3) EC/IC50 calculations were achieved utilizing calculated RLU data and data fitting macros. Data were fit using least-squares methods to the following formula: […]

[2] = target: T1, wild-type Androgen Receptor (AR-wt); test: LNCaP-AR-wt ANT reporter assay (ARE firefly luciferase, antagonist mode); conditions: for IC50: antagonist mode, 400 pM R-1881 challenge, −Log10(IC50 [Molar]), read-out: LNCaP-AR-wt ANT pIC50 (converted); for Emax: read-out: LNCaP-AR-wt ANT MAX % Inh
Experimental: as §1, §2, §3

[3] = target: T2, F876L mutant Androgen Receptor (AR-F876L) (Homo sapiens, UniProt P10275, F877L); test: LNCaP-AR-F876L ANT reporter assay (ARE firefly luciferase, antagonist mode); conditions: for Emax: read-out: LNCaP-AR-F876L ANT MAX % Inh; for IC50: read-out: LNCaP-AR-F876L ANT pIC50 (converted)
T2 construct: expressed in transfected cells; host or cells: LNCaP (LNCaP F876L)
T2 sequence (P10275 1-920 F877L): T1 sequence (P10275 1-920) with F877L
Experimental: as §1, §2, §3

[4] = target: T2, F876L mutant Androgen Receptor (AR-F876L); test: LNCaP-AR-F876L AG reporter assay (ARE firefly luciferase, agonist mode); conditions: for EC50: agonist mode, −Log10(EC50 [Molar]), read-out: LNCaP-AR-F876L AG pEC50 (converted); for Emax: read-out: LNCaP-AR-F876L AG MAX % Stim
Experimental: as §1, §2, §3

[5] = maximum % stimulation (agonist response) over tested concentration range
[6] = maximum % inhibition of R1881 control response over tested concentration range

| EC50 [1] | Emax [1, 5] | IC50 [2] | Emax [2, 6] | Emax [3, 6] | IC50 [3] | EC50 [4] | Emax [4, 5] | Structure (SMILES) | pEC50 [1] | Emax [1] | Emax [2] | Emax [3] | pEC50 [4] | Emax [4] |
| --- | --- | --- | --- | --- | --- | --- | --- | --- | --- | --- | --- | --- | --- | --- |
| > 15100 nM | 0.6% | 501 nM | 101% | 96.5% | 257 nM | > 15100 nM | 0.5% | CN1CCC(Oc2ccc(N3C(=S)N(c4cnc(C#N)c(C(F)(F)F)c4)C(=O)C34CCC4)c(F)c2)CC1 [Cpd 49, 5-[8-[2-fluoro-4-[(1-methyl-4-piperidyl)oxy]phenyl]-5-oxo-7-thioxo-6,8-diazaspiro[3.4]octan-6-yl]-3-(trifluoromethyl)pyridine-2-carbonitrile] |  |  |  |  |  |  |
| > 15100 nM | 2.7% | 129 nM | 99.7% | 98.4% | 12 nM | > 15100 nM | 2.2% | Cc1cc(N2C(=O)C3(CCC3)N(c3ccc(-c4cncc(F)c4)cc3)C2=S)cnc1C#N [Cpd 104, 5-[8-[4-(5-fluoro-3-pyridyl)phenyl]-5-oxo-7-thioxo-6,8-diazaspiro[3.4]octan-6-yl]-3-methyl-pyridine-2-carbonitrile] |  |  |  |  |  |  |
| > 15100 nM | 0% | 295 nM | 102% | 98.9% | 245 nM | > 15100 nM | 1.6% | N#Cc1ncc(N2C(=O)C3(CCC3)N(c3ccc(C(F)(F)F)cc3)C2=S)cc1C(F)(F)F [Cpd 98, 5-[5-oxo-7-thioxo-8-[4-(trifluoromethyl)phenyl]-6,8-diazaspiro[3.4]octan-6-yl]-3-(trifluoromethyl)pyridine-2-carbonitrile] |  |  |  |  |  |  |
| > 15100 nM | 1.1% | 537 nM | 98.5% | 98.6% | 302 nM | > 15100 nM | 1.4% | N#Cc1ncc(N2C(=O)C3(CCC3)N(c3ccc(OCCN4CCCCC4)cc3F)C2=S)cc1C(F)(F)F [Cpd 91, 5-[8-[2-fluoro-4-[2-(1-piperidyl)ethoxy]phenyl]-5-oxo-7-thioxo-6,8-diazaspiro[3.4]octan-6-yl]-3-(trifluoromethyl)pyridine-2-carbonitrile] |  |  |  |  |  |  |
| > 15100 nM | 0.9% | 1260 nM | 99.4% | 99.6% | 347 nM | > 15100 nM | 0% | CC(C)NC(=O)c1ccc(N2C(=S)N(c3cnc(C#N)c(C(F)(F)F)c3)C(=O)C23CCC3)cc1F [Cpd 23, 4-[6-[6-cyano-5-(trifluoromethyl)-3-pyridyl]-5-oxo-7-thioxo-6,8-diazaspiro[3.4]octan-8-yl]-2-fluoro-N-isopropyl-benzamide] |  |  |  |  |  |  |
| > 15100 nM | 0.3% | 631 nM | 101% | 96.2% | 437 nM | > 15100 nM | 1.4% | N#Cc1ncc(N2C(=O)C3(CCC3)N(c3ccc(C4CCOCC4)cc3)C2=S)cc1C(F)(F)F [Cpd 89, 5-[5-oxo-8-(4-tetrahydropyran-4-ylphenyl)-7-thioxo-6,8-diazaspiro[3.4]octan-6-yl]-3-(trifluoromethyl)pyridine-2-carbonitrile] |  |  |  |  |  |  |
| > 15100 nM | 0.6% | 724 nM | 99% | 98.4% | 490 nM | > 15100 nM | 0.1% | Cc1cc(N2C(=O)C3(CCC3)N(c3ccc(OCCN4CCN(C)CC4)cc3)C2=S)cnc1C#N [Cpd 10, 3-methyl-5-[8-[4-[2-(4-methylpiperazin-1-yl)ethoxy]phenyl]-5-oxo-7-thioxo-6,8-diazaspiro[3.4]octan-6-yl]pyridine-2-carbonitrile] |  |  |  |  |  |  |
| > 15100 nM | 0.3% | 245 nM | 100% |  |  | > 15100 nM | 0% | N#Cc1ncc(N2C(=O)C3(CCC3)N(c3ccc(C(=O)NCCc4ccccc4)c(F)c3)C2=S)cc1C(F)(F)F [Cpd 42, 4-[6-[6-cyano-5-(trifluoromethyl)-3-pyridyl]-5-oxo-7-thioxo-6,8-diazaspiro[3.4]octan-8-yl]-2-fluoro-N-phenethyl-benzamide] |  |  |  |  |  |  |

| Structure (SMILES) | EC50 [1] | Emax [1, 5] | IC50 [2] | Emax [2, 6] | Emax [3, 6] | IC50 [3] | EC50 [4] | Emax [4, 5] | pEC50 [1] | Emax [1] | Emax [2] | Emax [3] | pEC50 [4] | Emax [4] |
| --- | --- | --- | --- | --- | --- | --- | --- | --- | --- | --- | --- | --- | --- | --- |
| CNC(=O)c1ccc(N2C(=S)N(c3cnc(C#N)c(C)c3)C(=O)C2(C)C)cc1F [Cpd 12, 4-[3-(6-cyano-5-methyl-3-pyridyl)-5,5-dimethyl-4-oxo-2-thioxo-imidazolidin-1-yl]-2-fluoro-N-methyl-benzamide] |  |  | 1740 nM |  |  | 229 nM |  |  | < 4.82 | 0.9% | 98.4% | 98.7% | < 4.82 | -0.3% |
| Cc1cc(N2C(=O)C3(CCC3)N(c3ccc(C(=O)Nc4nccs4)c(F)c3)C2=S)cnc1C#N [Cpd 63, 4-[6-(6-cyano-5-methyl-3-pyridyl)-5-oxo-7-thioxo-6,8-diazaspiro[3.4]octan-8-yl]-2-fluoro-N-thiazol-2-yl-benzamide] |  |  | 776 nM |  |  | 219 nM |  |  | < 4.82 | 0.7% | 68.6% | 83.4% | < 4.82 | 0.3% |
| Cc1cc(N2C(=O)C3(CCC3)N(c3ccc(OC4CCOCC4)cc3)C2=S)cnc1C#N [Cpd 87, 3-methyl-5-[5-oxo-8-(4-tetrahydropyran-4-yloxyphenyl)-7-thioxo-6,8-diazaspiro[3.4]octan-6-yl]pyridine-2-carbonitrile] |  |  |  |  |  | 288 nM |  |  | < 4.82 | 1.1% |  | 99.7% | < 4.82 | 0.9% |
